Measurements as given in PMC11769294, “(E)-1-(3-(3-Hydroxy-4-Methoxyphenyl)-1-(3,4,5-Trimethoxyphenyl)allyl)-1H-1,2,4-Triazole and Related Compounds: Their Synthesis and Biological Evaluation as Novel Antimitotic Agents Targeting Breast Cancer” (Pharmaceuticals, 2025).
Read-outs that look alike come from different tables or passages of the source.

What was measured:
Assay type in all cases: cell-based, human
[1] = system: LOX IMVI (Melanoma); assay: NCI60 screen (SRB); details: 48 h
[2] = system: HOP-62 (Non-Small Cell Lung Cancer); assay: NCI60 screen (SRB); details: 48 h
[3] = system: NCI-H23 (Non-Small Cell Lung Cancer); assay: NCI60 screen (SRB); details: 48 h
[4] = system: A549/ATCC (Non-Small Cell Lung Cancer); assay: NCI60 screen (SRB); details: 48 h
[5] = system: OVCAR-8 (Ovarian Cancer); assay: NCI60 screen (SRB); details: 48 h
[6] = system: NCI-H522 (Non-Small Cell Lung Cancer); assay: NCI60 screen (SRB); details: for GI50: five-dose
[7] = system: RPMI-8226 (Leukemia); assay: NCI60 screen (SRB); details: 48 h
[8] = system: NCI/ADR-RES (Ovarian Cancer); assay: NCI60 screen (SRB); details: 48 h
[9] = system: DU-145 (Prostate Cancer); assay: NCI60 screen (SRB); details: 48 h
[10] = system: OVCAR-5 (Ovarian Cancer); assay: NCI60 screen (SRB); details: 48 h
[11] = system: COLO 205 (Colon Cancer); assay: NCI60 screen (SRB); details: 48 h
[12] = system: M14 (Melanoma); assay: NCI60 screen (SRB); details: 48 h
[13] = system: EKVX (Non-Small Cell Lung Cancer); assay: NCI60 screen (SRB); details: 48 h
[14] = system: NCI 60 cancer cell line panel; assay: NCI60 screen (SRB), all cell lines
[15] = system: HS 578T (Breast Cancer); assay: NCI60 screen (SRB); details: 48 h
[16] = system: SK-MEL-2 (Melanoma); assay: NCI60 screen (SRB); details: 48 h
[17] = system: CCRF-CEM (Leukemia); assay: NCI60 screen (SRB); details: 48 h
[18] = system: UACC-257 (Melanoma); assay: NCI60 screen (SRB); details: 48 h
[19] = system: SNB-75 (CNS Cancer); assay: NCI60 screen (SRB); details: 48 h
[20] = system: RXF 393 (Renal Cancer); assay: NCI60 screen (SRB); details: 48 h
[21] = system: U251 (CNS Cancer); assay: NCI60 screen (SRB); details: 48 h
[22] = system: A498 (Renal Cancer); assay: NCI60 screen (SRB); details: 48 h
[23] = system: IGROV1 (Ovarian Cancer); assay: NCI60 screen (SRB); details: 48 h
[24] = system: SK-MEL-28 (Melanoma); assay: NCI60 screen (SRB); details: 48 h
[25] = system: OVCAR-4 (Ovarian Cancer); assay: NCI60 screen (SRB); details: 48 h
[26] = system: PC-3 (Prostate Cancer); assay: NCI60 screen (SRB); details: 48 h
[27] = system: MDA-MB-468 (Breast Cancer); assay: NCI60 screen (SRB); details: 48 h
[28] = system: SNB-19 (CNS Cancer); assay: NCI60 screen (SRB); details: 48 h
[29] = system: breast cancer panel; assay: NCI60 screen (SRB), panel mean; details: BC panel; one dose 10 µM; 48 h
[30] = system: UO-31 (Renal Cancer); assay: NCI60 screen (SRB); details: 48 h
[31] = system: SF-295 (CNS Cancer); assay: NCI60 screen (SRB); details: 48 h
[32] = system: UACC-62 (Melanoma); assay: NCI60 screen (SRB); details: 48 h
[33] = system: HCT-15 (Colon Cancer); assay: NCI60 screen (SRB); details: 48 h
[34] = system: OVCAR-3 (Ovarian Cancer); assay: NCI60 screen (SRB); details: 48 h
[35] = system: 786-0 (Renal Cancer); assay: NCI60 screen (SRB); details: 48 h
[36] = system: SK-MEL-5 (Melanoma); assay: NCI60 screen (SRB); details: 48 h
[37] = system: SF-539 (CNS Cancer); assay: NCI60 screen (SRB); details: 48 h
[38] = system: NCI-H460 (Non-Small Cell Lung Cancer); assay: NCI60 screen (SRB); details: for GI50: five-dose
[39] = system: SN12C (Renal Cancer); assay: NCI60 screen (SRB); details: 48 h
[40] = system: HCC-2998 (Colon Cancer); assay: NCI60 screen (SRB); details: 48 h
[41] = Homo sapiens, five-dose, read-out: IC50 (cell marked * in GI50 column) (converted)
[42] = Homo sapiens, five-dose, read-out: IC50 (cell marked * in GI50 column)

COc1ccc(/C=C/C(c2cc(OC)c(OC)c(OC)c2)n2cncn2)cc1O (centres unmarked) [Compound 22b, (E)-5-(3-(1H-1,2,4-Triazol-1-yl)-3-(3,4,5-trimethoxyphenyl)prop-1-en-1-yl)-2-methoxyphenol]
GI50 ([1]; Homo sapiens, five-dose): 0.0511 µM
growth percent ([1]; one dose 10 µM): 50.87%
IC50 [2, 41]: 30.2 µM
growth percent ([2]; one dose 10 µM): 22.52%
GI50 ([3]; Homo sapiens, five-dose): 3.47 µM
growth percent ([3]; one dose 10 µM): 41.50%
GI50 ([4]; Homo sapiens, five-dose): 4.56 µM
growth percent ([4]; one dose 10 µM): 40.13%
IC50 [5, 41]: 3.63 µM
growth percent ([5]; one dose 10 µM): 15.99%
GI50 ([6]; Homo sapiens, NCI-H522, 48 h): 0.022 µM
GI50 ([6]; 48 h): 0.0223 µM
growth percent ([6]; one dose 10 µM, 48 h): 13.04%
GI50 ([7]; Homo sapiens, five-dose): 0.037 µM
growth percent ([7]; one dose 10 µM): 19.89%
IC50 [8, 42]: 5.25 µM
growth percent ([8]; one dose 10 µM): 10.82%
IC50 [9, 41]: 6.61 µM
growth percent ([9]; one dose 10 µM): 21.00%
GI50 ([10]; Homo sapiens, five-dose): 4.48 µM
growth percent ([10]; one dose 10 µM): 86.55%
GI50 ([11]; Homo sapiens, five-dose): 3.66 µM
growth percent ([11]; one dose 10 µM): 60.64%
GI50 ([12]; Homo sapiens, five-dose): 0.0287 µM
growth percent ([12]; one dose 10 µM): −12.29%
GI50 ([13]; Homo sapiens, five-dose): 6.07 µM
growth percent ([13]; one dose 10 µM): 59.45%
GI50 ([14]; Homo sapiens, 48 h, five-dose, 48 h, read-out: MG-MID (mean of GI50 values over all cell lines)): 0.371 µM
GI50 ([14]; Homo sapiens, Figure 8, concentration in molar, read-out: Log 10 GI-50 Mean (converted)): 2.14 µM
IC50 ([14]; Homo sapiens, Figure 8, concentration in molar, read-out: Log 10 IC-50 Mean (converted)): 2.88 µM
LC50 (50% lethal concentration) ([14]; Homo sapiens, over all 60 cell lines, five-dose): > 100 µM
GI50 ([14]; five-dose, 48 h, read-out: MG-MID (mean of GI50 values over all cell lines)): 0.371 µM
TGI (total growth inhibition) ([14]; over all 60 cell lines, five-dose): 57.5 µM
mean growth percent ([14]; over the 60-cell line panel, one dose 10 µM, 48 h): 29.9%
growth percent ([15]; HS 578T, one dose 10 µM): 28.47%
IC50 ([15]; Homo sapiens, Hs-578T, read-out: IC50 (cell marked * in GI50 column)): > 100 µM
GI50 ([16]; Homo sapiens, five-dose): 0.0438 µM
growth percent ([16]; one dose 10 µM): 18.23%
GI50 ([17]; Homo sapiens, five-dose): 0.032 µM
growth percent ([17]; one dose 10 µM): 6.31%
GI50 ([18]; Homo sapiens, five-dose): > 100 µM
growth percent ([18]; one dose 10 µM): 55.61%
IC50 [19, 42]: > 100 µM
growth percent ([19]; one dose 10 µM): 40.99%
IC50 [20, 42]: > 100 µM
growth percent ([20]; one dose 10 µM): −16.94%
GI50 ([21]; Homo sapiens, U-251, five-dose): 0.0506 µM
growth percent ([21]; one dose 10 µM): 20.72%
GI50 ([22]; Homo sapiens, five-dose): 3.13 µM
growth percent ([22]; one dose 10 µM): 19.81%
GI50 ([23]; Homo sapiens, IGROV-1, five-dose): 5.83 µM
growth percent ([23]; one dose 10 µM): 50.48%
GI50 ([24]; Homo sapiens, five-dose): 3.62 µM
growth percent ([24]; one dose 10 µM): 59.08%
GI50 ([25]; Homo sapiens, five-dose): 7.05 µM
growth percent ([25]; one dose 10 µM): 83.51%
GI50 ([26]; Homo sapiens, five-dose): 0.036 µM
growth percent ([26]; one dose 10 µM): 23.47%
IC50 [27, 42]: > 100 µM
growth percent ([27]; one dose 10 µM): 8.27%
IC50 [28, 41]: 25.7 µM
growth percent ([28]; one dose 10 µM): 34.19%
mean growth percentage [29]: 29.1%
IC50 [30, 42]: > 100 µM
growth percent ([30]; one dose 10 µM): 54.20%
IC50 [31, 41]: 3.72 µM
growth percent ([31]; one dose 10 µM): 1.43%
GI50 ([32]; Homo sapiens, five-dose): 0.0476 µM
growth percent ([32]; one dose 10 µM): 37.50%
GI50 ([33]; Homo sapiens, five-dose): 0.0508 µM
growth percent ([33]; one dose 10 µM): 16.53%
GI50 ([34]; Homo sapiens, five-dose): 0.026 µM
growth percent ([34]; one dose 10 µM): 15.65%
IC50 [35, 41]: 8.91 µM
growth percent ([35]; one dose 10 µM): 23.33%
GI50 ([36]; Homo sapiens, five-dose): 0.0458 µM
growth percent ([36]; one dose 10 µM): 23.87%
GI50 ([37]; Homo sapiens, five-dose): 0.0267 µM
growth percent ([37]; one dose 10 µM): −4.58%
GI50 ([38]; Homo sapiens, NCI-H460, 48 h): 0.042 µM
GI50 ([38]; 48 h): 0.0423 µM
growth percent ([38]; one dose 10 µM, 48 h): 13.26%
GI50 ([39]; Homo sapiens, five-dose): 7.19 µM
growth percent ([39]; one dose 10 µM): 49.61%
GI50 ([40]; Homo sapiens, five-dose): 3 µM
growth percent ([40]; one dose 10 µM): 67.70%
